Source: patent publication US20260159481A1, “INDOLE DERIVATIVE WITH SUBSTITUENT AND PHARMACEUTICAL USE” (MITOIMMUNE THERAPEUTICS INC., priority 2023, published 2026)

Key:
cardiac cells (H9C2) [1] = test: Protective effect against t-BHP-induced cell death in cardiac cells (LDH release); format: cell-based; details: Rattus norvegicus, t-BHP 400 PM, 2 hours, read-out: EC50, protective effect against cell death due to t-BHP induction
Description: To confirm a protective effect on cardiac cells, H9C2 cells were seeded at 1.5×10^4 cells/well in a 96-well plate and cultured for 24 hours. The example compounds were diluted to have the final concentration of 0.001, 0.01, 0.03, 0.1, 0.3, 1, 3, 10, and 30 PM, respectively, and then added to different wells, and the resulting cells were cultured for 15 to 20 minutes. Tert-butyl hydroperoxide (t-BHP) was treated to have the final concentration of 400 PM, and the resulting cells were cultured for 2 hours. To confirm the cell death protection effect of each compound, the degree of extracellular secretion of lactate dehydrogenase (LDH) was measured using a cytotoxicity LDH assay kit [Dojindo; CK12]. Briefly, after 2 hours of t-BHP treatment on the cells, 70 μL of the supernatant was taken from the 96-well plate where the cells were cultured and transferred to a new 96-well plate. The assay buffer included in the kit was added at 70 μL/well (equal to that of the sample) and the plate was covered with foil to block light and allowed to react for 15 minutes at room temperature. While observing a color change of each sample, 35 μL/well of a stop solution was added, an absorbance at 490 nm was measured using an iD3 spectrophotometer, and an EC50 value was calculated.

cardiac cells (H9C2) [2] = test: Protective effect against cell death due to RSL3 (LDH release), H9C2; format: cell-based; details: Rattus norvegicus, RSL3 0.5 μM, 24 hours
Description: (§1) To confirm cell death protection effects on cardiac cells, adrenal medullary cells, renal fibroblasts, retinal epithelial cells, lung epithelial cells, renal proximal tubular epithelial cells, hippocampal neurons and fibroblasts, each type of cells were seeded at 4×10^3 to 1.2×10^4 cells/well in a 96-well plate and cultured for 18 to 24 hours. The example compounds were diluted to have the final concentration of 0.001, 0.003, 0.01, 0.3, 1, 3, and 10 μM, respectively, and then added to different wells and cultured for 15 to 20 minutes. […] To confirm the cell death protection effect of the example compounds, the degree of extracellular secretion of lactate dehydrogenase (LDH) was measured using a cytotoxicity LDH assay kit [Dojindo; CK12]. Briefly, at the end of 24-hour treatment of each type of cells with RSL3, 70 μL of the supernatant was taken from the 96-well plate where the cells were cultured and transferred to a new 96-well plate. The assay buffer included in the kit was added at 70 μL/well (equal to that of the sample) and the plate was covered with foil to block light and allowed to react for 15 to 20 minutes at room temperature. While observing a color change of the sample, 35 µL/well of a stop solution was added, an absorbance at 490 nm was measured using an iD3 spectrophotometer, and an EC50 value was calculated.

[3] = system: renal fibroblasts (NRK-49F); test: Protective effect against cell death due to RSL3 (LDH release), NRK-49F; format: cell-based; details: Rattus norvegicus, RSL3 3 μM, 24 hours
Description: as §1

[4] = system: lung epithelial cells (MLE-12); test: Protective effect against cell death due to RSL3 (LDH release), MLE-12; format: cell-based; details: MLE12, RSL3 1 μM, 24 hours
Description: as §1

[5] = system: retinal epithelial cells (ARPE-19); test: Protective effect against cell death due to RSL3 (LDH release), ARPE-19; format: cell-based; details: Homo sapiens, RSL3 0.3 μM, 24 hours
Description: as §1

[6] = system: adrenal medullary cells (PC-12); test: Protective effect against cell death due to RSL3 (LDH release), PC-12; format: cell-based; details: Rattus norvegicus, RSL3 0.3 μM, 24 hours
Description: as §1

[7] = system: renal proximal tubular epithelial cells (HK2); test: Protective effect against cell death due to RSL3 (LDH release), HK2; format: cell-based; details: Epithelial cell, RSL3 0.3 μM, 24 hours
Description: as §1

[8] = system: hippocampal neurons (HT-22); test: Protective effect against cell death due to RSL3 (LDH release), HT-22; format: cell-based; details: Mus musculus, RSL3 0.3 μM, 24 hours
Description: as §1

fibroblasts (NIH/3T3) = test: Protective effect against cell death due to RSL3 (LDH release), NIH/3T3; format: cell-based; details: Mus musculus, NIH3T3, RSL3 3 μM, 24 hours
Description: as §1

[9] = Pharmacokinetics in plasma after oral administration to ICR mice; format: in vivo; details: oral 10 mg/kg, plasma
Description: Pharmacokinetic parameters may include the maximum plasma concentration (Cmax), the time to reach the maximum plasma concentration (Tmax), the area under the plasma concentration-time curve (AUCinf), and a half-life (t1/2).
Example Compound 27 was orally administered to ICR mice at a dose of 10 mg/kg. Drug concentrations in the plasma of mice were measured by HPLC-MS/MS spectroscopy 0.5, 1, 2, 4, 8, or 24 hours after administration.
The comparative example compound was orally administered to ICR mice at a dose of 10 mg/kg. The drug concentrations in the plasma of the mice were measured by HPLC-MS/MS 0.5, 1, 2, 4, 8, or 24 hours after administration.

Structure (SMILES)	EC50 (cardiac cells (H9C2) [1]) [nM]	other results
CCN(CC)C(=O)Cc1cc(NCc2ccccc2)c2[nH]c(-c3ccccc3)cc2c1 [Example 14, 2-(7-(benzylamino)-2-phenyl-1H-indol-5-yl)-N,N-diethylacetamide]	300 to 1000	EC50 (cardiac cells (H9C2) [2]): ≤ 100 nM; EC50 [3]: ≤ 100 nM; EC50 [4]: ≤ 100 nM; EC50 [5]: ≤ 100 nM; EC50 [6]: ≤ 100 nM; EC50 [7]: ≤ 100 nM; EC50 [8]: 100 to 1000 nM; EC50 (fibroblasts (NIH/3T3)): 100 to 1000 nM
CN(CCO)CCOCc1cc(NC2CCOCC2)c2[nH]c(-c3ccccc3)cc2c1 [Example 53, 2-(methyl(2-((2-phenyl-7-((tetrahydro-2H-pyran-4-yl)amino)-1H-indol-5-yl)methoxy)ethyl)amino)ethan-1-ol]	≤ 300	–
O=C(Nc1ccccc1)c1cc(NCc2ccccc2)c2[nH]c(-c3ccccc3)cc2c1 [Example 10, 7-(benzylamino)-N,2-diphenyl-1H-indole-5-carboxamide]	300 to 1000	–
O=C(NC1CC1)c1cc(NCc2ccccc2)c2[nH]c(-c3ccccc3)cc2c1 [Example 7, 7-(benzylamino)-N-cyclopropyl-2-phenyl-1H-indole-5-carboxamide]	≤ 300	–
OC1CCC(OCc2cc(NC3CCOCC3)c3[nH]c(-c4ccccc4)cc3c2)CC1 (stereo not shown) [Example 35, 4-((2-phenyl-7-((tetrahydro-2H-pyran-4-yl)amino)-1H-indol-5-yl)methoxy)cyclohexan-1-ol]	≤ 300	–
CCC(O)(CC)COCCOCc1cc(NC2CCOCC2)c2[nH]c(-c3ccccc3)cc2c1 [Example 32, 3-((2-((2-phenyl-7-((tetrahydro-2H-pyran-4-yl)amino)-1H-indol-5-yl)methoxy)ethoxy)methyl)pentan-3-ol]	≤ 300	–
CCN(CC)C(=O)c1cc(NC2CCCC2)c2[nH]c(-c3ccccc3)cc2c1 [Example 1, 7-(cyclopentylamino)-N,N-diethyl-2-phenyl-1H-indol-5-carboxamide]	≤ 300	–
CCNS(=O)(=O)c1cc(NC2CCOCC2)c2[nH]c(-c3ccccc3)cc2c1 [Example 20, N-ethyl-2-phenyl-7-((tetrahydro-2H-pyran-4-yl)amino)-1H-indole-5-sulfonamide]	≤ 300	–
c1ccc(-c2cc3cc(COC4CCOCC4)cc(NC4CCOCC4)c3[nH]2)cc1 [Example 37, 2-phenyl-N-(tetrahydro-2H-pyran-4-yl)-5-(((tetrahydro-2H-pyran-4-yl)oxy)methyl)-1H-indol-7-amine]	≤ 300	–
CCN(CC)C(=O)Cc1cc(NC2CCOCC2)c2[nH]c(-c3ccccc3)cc2c1 [Example 12, N,N-diethyl-2-(2-phenyl-7-((tetrahydro-2H-pyran-4-yl)amino)-1H-indol-5-yl)acetamide]	≤ 300	–
CC(C)(O)COCCOCc1cc(NC2CCOCC2)c2[nH]c(-c3ccccc3)cc2c1 [Example 31, 2-methyl-1-(2-((2-phenyl-7-((tetrahydro-2H-pyran-4-yl)amino)-1H-indol-5-yl)methoxy)ethoxy)propan-2-ol]	≤ 300	–
COCCOCCN(C)Cc1cc(NC2CCOCC2)c2[nH]c(-c3ccccc3)cc2c1 [Example 58, 5-(((2-(2-methoxyethoxy)ethyl)(methyl)amino)methyl)-2-phenyl-N-(tetrahydro-2H-pyran-4-yl)-1H-indol-7-amine]	≤ 300	–
N#CCc1cc(NC2CCOCC2)c2[nH]c(-c3ccccc3)cc2c1 [Example 23, 2-(2-phenyl-7-((tetrahydro-2H-pyran-4-yl)amino)-1H-indol-5-yl)acetonitrile]	≤ 300	–
COCCNCc1cc(NC2CCOCC2)c2[nH]c(-c3ccccc3)cc2c1 [Example 50, 5-(((2-methoxyethyl)amino)methyl)-2-phenyl-N-(tetrahydro-2H-pyran-4-yl)-1H-indol-7-amine]	≤ 300	–
OCCNCCOCc1cc(NC2CCOCC2)c2[nH]c(-c3ccccc3)cc2c1 [Example 48, 2-((2-((2-phenyl-7-((tetrahydro-2H-pyran-4-yl)amino)-1H-indol-5-yl)methoxy)ethyl)amino)ethan-1-ol]	300 to 1000	–
CCN(CC)C(=O)c1cc(NC2CCOCC2)c2[nH]c(-c3ccccc3)cc2c1 [Example 2, N,N-diethyl-2-phenyl-7-((tetrahydro-2H-pyran-4-yl)amino)-1H-indol-5-carboxamide]	≤ 300	–
O=S1(=O)CCN(CCOCc2cc(NC3CCCC3)c3[nH]c(-c4ccccc4)cc3c2)CC1 [Example 43, 4-(2-((7-(cyclopentylamino)-2-phenyl-1H-indol-5-yl)methoxy)ethyl)thiomorpholine 1,1-dioxide]	≤ 300	–
O=S1(=O)CCN(CCOCc2cc(NC3CCOCC3)c3[nH]c(-c4ccccc4)cc3c2)CC1 [Example 47, 4-(2-((2-phenyl-7-((tetrahydro-2H-pyran-4-yl)amino)-1H-indol-5-yl)methoxy)ethyl)thiomorpholine 1,1-dioxide]	300 to 1000	–
CCNS(=O)(=O)c1cc(NCc2ccccc2)c2[nH]c(-c3ccccc3)cc2c1 [Example 21, 7-(benzylamino)-N-ethyl-2-phenyl-1H-indole-5-sulfonamide]	> 1000	–
OCCOCCc1cc(NC2CCOCC2)c2[nH]c(-c3ccccc3)cc2c1 [Example 33, 2-(2-(2-phenyl-7-((tetrahydro-2H-pyran-4-yl)amino)-1H-indol-5-yl)ethoxy)ethan-1-ol]	≤ 300	–
OCCOCc1cc(NC2CCCC2)c2[nH]c(-c3ccccc3)cc2c1 [Example 26, 2-((7-(cyclopentylamino)-2-phenyl-1H-indol-5-yl)methoxy)ethan-1-ol]	≤ 300	–
OCc1cc(NC2CCCC2)c2[nH]c(-c3ccccc3)cc2c1 [Comparative Example, [7-(cyclopentylamino)-2-phenyl-1H-indol-5-yl]methanol, reference compound]	–	Cmax ([9]; mouse): 2110 ng/mL; Tmax ([9]; mouse): 1 h; half-life ([9]; mouse): 1.4 h; concentration at 0.5 h ([9]; mouse, 0.5 hr): 1640 ng/mL; concentration at 1 h ([9]; mouse, 1 hr): 2110 ng/mL; concentration at 2 h ([9]; mouse, 2 hr): 1120 ng/mL; concentration at 4 h ([9]; mouse, 4 hr): 389 ng/mL; concentration at 8 h ([9]; mouse, 8 hr): 51 ng/mL; AUCinf [9]: 5,459 ng · hr/mL; area under the plasma concentration-time curve (AUCinf) [9]: 5460 ng·h/mL
O=C(NC1CC1)c1cc(NC2CCOCC2)c2[nH]c(-c3ccccc3)cc2c1 [Example 6, N-cyclopropyl-2-phenyl-7-((tetrahydro-2H-pyran-4-yl)amino)-1H-indole-5-carboxamide]	≤ 300	–
COCCOCCNCc1cc(NC2CCOCC2)c2[nH]c(-c3ccccc3)cc2c1 [Example 57, 5-(((2-(2-methoxyethoxy)ethyl)amino)methyl)-2-phenyl-N-(tetrahydro-2H-pyran-4-yl)-1H-indol-7-amine]	≤ 300	–
CNC(=O)Cc1cc(NC2CCCC2)c2[nH]c(-c3ccccc3)cc2c1 [Example 16, 2-(7-(cyclopentylamino)-2-phenyl-1H-indol-5-yl)-N-methylacetamide]	≤ 300	–
O=C(NC1CC1)c1cc(NC2CCCC2)c2[nH]c(-c3ccccc3)cc2c1 [Example 5, 7-(cyclopentylamino)-N-cyclopropyl-2-phenyl-1H-indole-5-carboxamide]	≤ 300	–
